Experiments:
[1] = target: T1, farnesyl protein transferase (FPT) (Rattus norvegicus, UniProt Q02293+Q04631); experiment: In vitro enzyme assay: inhibition of farnesyl protein transferase; type: biochemical; conditions: Ras-CVLS farnesylation, partially purified rat brain FPT; read-out: FPT IC50
T1 construct: were partially purified from rat brain by ammonium sulfate fractionation followed by Q-Sepharose; from tissue; host or cells: rat brain
Procedure: (§1) 1. In vitro enzyme assays: Inhibition of farnesyl protein transferase and geranylgeranyl protein transferase.
Human farnesyl protein transferase was also expressed in E. coli, using cDNA clones encoding both the α and β subunits. […] Two forms of val^12-Ha-Ras protein were prepared as substrates for these enzymes, differing in their carboxy terminal sequence. One form terminated in cysteine-valine-leucine-serine (Ras-CVLS) the other in cystein-valine-leucine-leucine (Ras-CVLL). Ras-CVLS is a substrate for the farnesyl protein transferase while Ras-CVLL is a substrate for geranylgeranyl protein transferase I. The cDNAs encoding these proteins were constructed so that the proteins contain an amino-terminal extension of 6 histidine residues. Both proteins were expressed in Escherichia coli and purified using metal chelate affinity chromatography. The radiolabelled isoprenyl pyrophosphate substrates, [^3H]farnesyl pyrophosphate and [^3H]geranylgeranyl pyrophosphate, were purchased from DuPont/New England Nuclear.
The reaction was allowed to proceed for 30 minutes at room temperature and then stopped with 0.5 ml of 4% sodium dodecyl sulfate (SDS) followed by 0.5 ml of cold 30% trichloracetic acid (TCA). Samples were allowed to sit on ice for 45 minutes and precipitated Ras protein was then collected on GF/C filter paper mats using a Brandel cell harvester. […] Percent inhibition was calculated relative to the DMSO vehicle control.

[2] = tested on: T24-BAG4 human bladder carcinoma cells expressing an activated H-ras gene; experiment: Cell Mat assay: inhibition of tumor cell growth; type: cell-based; conditions: Homo sapiens, tIC50
Procedure: Normal human HEPM fibroblasts were planted in 3.5 cm dishes at a density of 5×10^4 cells/dish in 2 ml growth medium, and incubated for 3-5 d to achieve confluence. Medium was aspirated from each dish and the indicator tumor cells, T24-BAG4 human bladder carcinoma cells expressing an activated H-ras gene, were planted on top of the fibroblast monolayer at a density of 2×10^3cells/dish in 2 ml growth medium, and allowed to attach overnight. Compound-induced colony inhibition was assayed by addition of serial dilutions of compound directly to the growth medium 24 h after tumor cell planting, and incubating cells for an additional 14 d to allow colony formation. Assays were terminated by rinsing monolayers twice with phosphate-buffered saline (PBS), fixing the monolayers with a 1% glutaraldehyde solution in PBS, then visualizing tumor cells by staining with X-Gal (Price, J., et al., Lineage analysis in the vertebrate nervous system by retrovirus-mediated gene transfer, Proc. Natl. Acad. Sci.84, 156-160(1987)). […] Both IC50 values were obtained by determining the density of tumor cells and mat cells by visual inspection and enumeration of cells per colony and the number of colonies under the microscope. The therapeutic index of the compound was quantitatively expressed as the ratio of mIC50/tIC50, with values greater than one indicative of tumor target specificity.

[3] = target: T2, geranylgeranyl protein transferase (GGPT) I (Rattus norvegicus, UniProt P53610+Q04631); experiment: In vitro enzyme assay: inhibition of geranylgeranyl protein transferase I; type: biochemical
T2 construct: were partially purified from rat brain by ammonium sulfate fractionation followed by Q-Sepharose; from tissue; host or cells: rat brain
Source text: as §1
Both farnesyl protein transferase (FPT) and geranylgeranyl protein transferase (GGPT) I were partially purified from rat brain by ammonium sulfate fractionation followed by Q-Sepharose (Pharmacia, Inc.) anion exchange chromatography essentially as described by Yokoyama et al (Yokoyama, K., et al., (1991). A protein geranylgeranyltransferase from bovine brain: Implications for protein prenylation specificity, Proc. Natl. Acad. Sci USA 88: 5302-5306, the disclosure of which is incorporated herein by reference thereto). Human farnesyl protein transferase was also expressed in E. coli, using cDNA clones encoding both the α and β subunits. The methods used were similar to those published (Omer, C. et al., (1993), Characterization of recombinant human farnesyl protein transferase: Cloning, expression, farnesyl diphosphate binding, and functional homology with yeast prenyl-protein transferase, Biochemistry 32:5167-5176). Human farnesyl protein transferase was partially-purified from the soluble protein fraction of E. coli as described above. the tricyclic farnesyl protein transferase inhibitors disclosed herein inhibited both human and rat enzyme with similar potencies. Two forms of val^12-Ha-Ras protein were prepared as substrates for these enzymes, differing in their carboxy terminal sequence. One form terminated in cysteine-valine-leucine-serine (Ras-CVLS) the other in cystein-valine-leucine-leucine (Ras-CVLL). Ras-CVLS is a substrate for the farnesyl protein transferase while Ras-CVLL is a substrate for geranylgeranyl protein transferase I. The cDNAs encoding these proteins were constructed so that the proteins contain an amino-terminal extension of 6 histidine residues. Both proteins were expressed in Escherichia coli and purified using metal chelate affinity chromatography. The radiolabelled isoprenyl pyrophosphate substrates, [^3H]farnesyl pyrophosphate and [^3H]geranylgeranyl pyrophosphate, were purchased from DuPont/New England Nuclear.
The geranylgeranyl protein transferase I assay was essentially identical to the farnesyl protein transferase assay described above, with two exceptions: [^3H]geranylgeranylpyrophosphate replaced farnesyl pyrophosphate as the isoprenoid donor and Ras-CVLL was the protein acceptor. This is similar to the assay reported by Casey et al (Casey, P. J., et al., (1991), Enzymatic modification of proteins with a geranylgeranyl isoprenoid, Proc. Natl. Acad. Sci, USA 88: 8631-8635, the disclosure of which is incorporated herein by reference thereto).

IC50 [1]: 3.7 µM
IC50 [2]: 12.5 µM
selective for FPT inhibition (versus GGPT) ([3]; FPT versus GGPT): at least 13 fold
activity against GGPT ([3]; at 49 μM): inactive
Structure (SMILES): CCOC(=O)N1CCC(C2(F)c3ccc(Cl)cc3CCc3cccnc32)CC1 (stereo not shown) [Compound 530.00]
